Source: patent publication US20260374739A1, “SMALL MOLECULAR WEIGHT CHEMICAL COMPOUND TO ANTAGONIZE EPH-EPHRIN TETRAMERIZATION AND INHIBIT BIDIRECTIONAL SIGNALING” (THE BOARD OF REGENTS OF THE UNIVERSITY OF TEXAS SYSTEM, priority 2022, published 2026)
“Also recorded” adds a separate entry of the source.

What was measured:
[1] = tested on: CFA-induced thermal pain in mice; assay: CFA inflammatory pain, thermal; assay type: in vivo, mouse
Description: A total of five wildtype (WT) male mice were injected IP with A20 free base (3 mice at 10 mg/kg and 2 mice at 20 mg/kg in 6% DMSO/94% sunflower seed oil, data is pooled) and three WT males with vehicle (V) only as control. As indicated, injections of A20 or V started two days prior to the single injection of CFA into one of the two hind paws to initiate inflammatory pain, and injections continued for two additional days. For each day's examination of withdrawal latency, both left and right hind paws were subjected to 6-12 thermal pain measurements to obtain an average response time for each mouse. Mice were at 14 weeks age when experiment started.
Wildtype (WT) female mice were injected IP with either A20 free base (20 mg/kg in 6% DMSO/94% sunflower seed oil), with MCD kinase inhibitor (10 mg/kg in PBS), or vehicle only (6% DMSO/94% sunflower seed oil). Injections of A20, MCD, or V started two days prior to a single injection of CFA into one of the two hind paws to initiate inflammatory pain, and injections continued for two additional days. For each day's examination of withdrawal latency, both left and right hind paws were subjected to 6-12 thermal pain measurements to obtain an average response time, and for each mouse the average of the uninjured hind paw response time was divided by the average of the injured side response time to obtain a pain response ratio for each mouse which was then plotted and subjected to indicated statistical analysis. Data shown were those obtained at day +3 post-CFA. Mice were at 20 weeks age when experiment started.
FIG. 63 depicts tests of salt versions of compounds A20 and QPB4-Bn showing both are effective at reducing inflammatory pain when injected after the pain-generating insult and when using PBS as the vehicle. Wild-type (WT) male and female mice were injected IP with either A20.2×HCl salt (20 mg/kg in PBS), QPB4-Bn·2×HCl salt (20 mg/kg in PBS), or vehicle only (PBS). Here, the first injection of A20, QPB4-Bn, or V started 15 minutes after CFA was injected into one of the two hind paws to initiate inflammatory pain, and injections continued every 12 hours for three additional days. For each day's examination of withdrawal latency, both left and right hind paws were subjected to 6-12 thermal pain measurements to obtain an average response time, and for each mouse the average of the uninjured hind paw response time was divided by the average of the injured side response time to obtain a pain response ratio for each mouse which was then plotted and subjected to indicated statistical analysis. Data shown were those obtained at day +3 post-CFA. Mice were at 8 weeks age when experiment started.
FIG. 64 depicts tests of two more A20 analogs, salt forms of QPB4 and QPP (QPP127) show both are effective at reducing inflammatory pain when injected after the pain-generating insult and when using PBS as the vehicle. Wild-type (WT) female mice were injected IP with QPB4.2×HCl salt (20 mg/kg in PBS), QPP (QPP127)·2×HCl salt (20 mg/kg in PBS), or vehicle only (PBS). Here, the first injection of QPB4, QPP (QPP127), or vehicle started 15 minutes after CFA was injected into one of the two hind paws to initiate inflammatory pain, and injections continued every 12 hours for three additional days. For each day's examination of withdrawal latency, both left and right hind paws were subjected to 6-12 thermal pain measurements to obtain an average response time, and for each mouse the average of the uninjured hind paw response time was divided by the average of the injured side response time to obtain a pain response ratio for each mouse which was then plotted and subjected to indicated statistical analysis. Data shown were those obtained at day +3 post-CFA. Mice were at 12 weeks age when experiment started.
A20 was therefore tested in 14-week-old CD1 mice for enhanced thermal sensitivity induced by CFA. […]

[2] = tested on: EphB2; assay: EphB2 phosphorylation in mouse brain after dosing (immunoprecipitation/immunoblot); assay type: in vivo; conditions: 4 days
Description: Wild-type mice aged 10-12 weeks were IP injected every 12 hr for four days with vehicle (PBS) or 10 mg/kg of 2×·HCl salt forms of A20 (in PBS), A20-I (in PBS), or 3511-I, in 94% PBS/6% DMSO) for a total of 8 injections. Exactly 2 hr after final injection of A20 chemical, brains were dissected and frozen at −80 °C. Whole brain protein lysates were then prepared in a Dounce homogenizer using 5 ml PLC lysis buffer, and 1 ml of lysate was used for immunoprecipitation (IP) with 1 μg goat anti-EphB2 antibody, followed by immunoblot (IB) analysis with goat anti-EphB2, rabbit anti-phosphoEphB1/B2 (pEphB1/B2), and mouse anti-EphrinB2 antibodies using appropriate HRP conjugated secondary antibodies and chemiluminescent detection methods.
FIG. 79A depicts an illustrative immunoblot showing expression of EphB2, phospho-EphB1/B2, and EphrinB2 (co-IP) in the mouse brains. […] The level of co-immunoprecipitated EphrinB2 from the brains of A20 chemical injected animals was generally lower as indicated by fainter bands. FIGS. 79B and 79C show quantification of band intensities (number of photons detected) to obtain ratios of pEphB/EphB2 as a measure of EphB2 receptor activation levels (FIG. 79B) and ratios of EphrinB2/EphB2 as a measure of how much EphrinB2 is co-immunoprecipitated with the EphB2 receptor (FIG. 79C).
Whole brain protein lysates were prepared from wild-type mice either oral dosed (PO) or injected (IP) for 4 days with vehicle (PBS) or 20 mg/kg of 2×·HCl salt drugs of A20 or A20-I every 12 hr, with last ([…]) dose staggered such that brain dissections happened 2 hr after final drug dosing. EphB2 was immunoprecipitated from 1 ml of protein lysate using 1 μg of goat anti-EphB2 antibodies and then precipitated proteins immunoblotted with goat anti-EphB2, rabbit anti-pTyr1000, and mouse 4G10 antibodies using appropriate HRP conjugated secondary antibodies and chemiluminescent detection methods.
The pTry1000 and 4G10 immunoblots (FIG. 80B and FIG. 80C, respectively), which both recognize tyrosine phosphorylated proteins and are readouts for the activated EphB2 tyrosine kinase catalytic domain, both show strong tyrosine phosphorylation of the receptor in 3 of 4 vehicle (V) control lanes. […] The results shown here also highlight our finding that when EphB2 is tyrosine phosphorylated and catalytically activate in the intact brain, the protein migrates much slower in the SDS-PAGE gels with apparent migration in distinct bands-220-260 kDa (green arrows in FIGS. 80B and 80C), as opposed to the typical migration of unphosphorylated EphB2 protein at 125 kDa (black arrow in FIG. 80A).

| SMILES | activated phosphorylated EphB2 in brain ([2]; IP 10 mg/kg every 12 hr) | activated phosphorylated EphB2 in brain ([2]; PO or IP 20 mg/kg every 12 hr) | thermal pain ([1]; dosed after CFA) | also measured |
| --- | --- | --- | --- | --- |
| Oc1c(Br)cc(CN2CCOCC2)c2cccnc12 [Compound 5, 7-bromo-5-(morpholinomethyl)quinolin-8-ol] | generally lower level of activated phosphorylated EphB2 in the brain | lower levels of activated phosphorylated EphB2 in the brain | – | thermal pain ratio ([1]; IP or PO 20 mg/kg, vehicle 4 or above): < 2; thermal pain ([1]; IP, dosing started two days before CFA, listed as A20): remarkably blunted; also recorded: appears to be a more effective agent; thermal pain ([1]; dosed after CFA, listed as A20): ability to blunt the enhanced sensitivity produced by the inflammatory pain insult; also recorded: reduced sensitivity to the infrared heat source compared to the vehicle treated mice |
| Oc1c(I)cc(CN2CCOCC2)c2cccnc12 [Compound 7, 7-iodo-5-(morpholinomethyl)quinolin-8-ol] | generally lower level of activated phosphorylated EphB2 in the brain | lower levels of activated phosphorylated EphB2 in the brain | – | – |
| Oc1ccc(CN2CCN(c3ccc(Br)cc3)CC2)c2cccnc12 [Compound 26, 5-((4-(4-bromophenyl)piperazin-1-yl)methyl)quinolin-8-ol] | – | – | ability to blunt the enhanced sensitivity produced by the inflammatory pain insult | – |
| Oc1ccc(CN2CCN(c3ccc(Br)cn3)CC2)c2cccnc12 [Compound 33, 5-((4-(5-bromopyridin-2-yl)piperazin-1-yl)methyl)quinolin-8-ol] | – | – | ability to blunt the enhanced sensitivity produced by the inflammatory pain insult | – |
| Oc1ccc(CN2CCN(Cc3ccc(Br)cc3)CC2)c2cccnc12 [Compound 42, 5-((4-(4-bromobenzyl)piperazin-1-yl)methyl)quinolin-8-ol] | – | – | ability to blunt the enhanced sensitivity produced by the inflammatory pain insult | – |
| COc1ccccc1N1CCN(Cc2cc(I)c(O)c3ncccc23)CC1 [Compound 71, 7-iodo-5-((4-(2-methoxyphenyl)piperazin-1-yl)methyl)quinolin-8-ol] | generally lower level of activated phosphorylated EphB2 in the brain | – | – | – |
